Reference: ChEMBL document CHEMBL1140941 (J Med Chem, 2009)
Active and inactive are the calls of the source. No cut-off for these calls is given here.

Assays:
[1] = target: T1, Peroxisome proliferator-activated receptor alpha (Homo sapiens) (UniProt Q07869); test: Agonist activity at PPARalpha expressed in african green monkey CV1 cells co-expressing MH100 by luciferase reporter gene assay; format: functional, cell-based; settings: CV-1
T1 sequence (whole entry): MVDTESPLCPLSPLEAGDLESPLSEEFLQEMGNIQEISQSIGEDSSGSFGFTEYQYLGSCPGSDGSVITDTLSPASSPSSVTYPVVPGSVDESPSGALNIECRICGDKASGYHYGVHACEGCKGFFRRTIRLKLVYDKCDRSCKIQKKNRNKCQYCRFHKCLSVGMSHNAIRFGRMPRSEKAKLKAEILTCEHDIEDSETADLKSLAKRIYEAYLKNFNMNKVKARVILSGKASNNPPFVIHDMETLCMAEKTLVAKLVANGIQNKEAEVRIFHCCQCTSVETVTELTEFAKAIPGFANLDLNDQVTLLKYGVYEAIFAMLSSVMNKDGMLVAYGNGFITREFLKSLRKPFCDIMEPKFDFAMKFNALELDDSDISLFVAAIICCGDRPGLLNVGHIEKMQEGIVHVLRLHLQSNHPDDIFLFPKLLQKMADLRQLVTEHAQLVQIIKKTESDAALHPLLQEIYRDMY

[2] = target: Nuclear receptor subfamily 1 group I member 2 (Homo sapiens, UniProt O75469); test: Agonist activity at SXR expressed in african green monkey CV1 cells co-expressing MH100 by luciferase reporter gene assay; format: functional, cell-based; settings: cv-1
[3] = target: T2, Peroxisome proliferator-activated receptor gamma (Homo sapiens) (UniProt P37231); test: Agonist activity at PPARgamma expressed in african green monkey CV1 cells co-expressing PPRE up to 10 uM by luciferase reporter gene assay relative to control; format: functional, cell-based; settings: CV-1
T2 sequence (whole entry): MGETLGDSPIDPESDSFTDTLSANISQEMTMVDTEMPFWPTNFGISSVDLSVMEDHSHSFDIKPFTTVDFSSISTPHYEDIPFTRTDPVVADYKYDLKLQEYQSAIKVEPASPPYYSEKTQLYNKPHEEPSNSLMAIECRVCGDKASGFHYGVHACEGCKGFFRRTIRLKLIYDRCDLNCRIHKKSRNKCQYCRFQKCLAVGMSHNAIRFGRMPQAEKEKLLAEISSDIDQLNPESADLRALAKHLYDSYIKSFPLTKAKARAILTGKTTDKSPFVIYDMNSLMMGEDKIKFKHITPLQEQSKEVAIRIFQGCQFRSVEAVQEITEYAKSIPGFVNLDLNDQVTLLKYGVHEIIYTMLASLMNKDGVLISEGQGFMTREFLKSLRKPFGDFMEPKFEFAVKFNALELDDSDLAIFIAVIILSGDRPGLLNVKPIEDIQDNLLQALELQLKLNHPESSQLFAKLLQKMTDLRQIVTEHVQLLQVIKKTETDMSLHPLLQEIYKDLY

[4] = target: T3, Androgen receptor (Homo sapiens) (UniProt P10275); test: Agonist activity at human gal-AR expressed in african green monkey CV1 cells co-expressing MH100 with pGRIP1 co-factor up to 10 uM by luciferase reporter gene assay relative to control; format: functional, cell-based; settings: CV-1
T3 sequence (whole entry): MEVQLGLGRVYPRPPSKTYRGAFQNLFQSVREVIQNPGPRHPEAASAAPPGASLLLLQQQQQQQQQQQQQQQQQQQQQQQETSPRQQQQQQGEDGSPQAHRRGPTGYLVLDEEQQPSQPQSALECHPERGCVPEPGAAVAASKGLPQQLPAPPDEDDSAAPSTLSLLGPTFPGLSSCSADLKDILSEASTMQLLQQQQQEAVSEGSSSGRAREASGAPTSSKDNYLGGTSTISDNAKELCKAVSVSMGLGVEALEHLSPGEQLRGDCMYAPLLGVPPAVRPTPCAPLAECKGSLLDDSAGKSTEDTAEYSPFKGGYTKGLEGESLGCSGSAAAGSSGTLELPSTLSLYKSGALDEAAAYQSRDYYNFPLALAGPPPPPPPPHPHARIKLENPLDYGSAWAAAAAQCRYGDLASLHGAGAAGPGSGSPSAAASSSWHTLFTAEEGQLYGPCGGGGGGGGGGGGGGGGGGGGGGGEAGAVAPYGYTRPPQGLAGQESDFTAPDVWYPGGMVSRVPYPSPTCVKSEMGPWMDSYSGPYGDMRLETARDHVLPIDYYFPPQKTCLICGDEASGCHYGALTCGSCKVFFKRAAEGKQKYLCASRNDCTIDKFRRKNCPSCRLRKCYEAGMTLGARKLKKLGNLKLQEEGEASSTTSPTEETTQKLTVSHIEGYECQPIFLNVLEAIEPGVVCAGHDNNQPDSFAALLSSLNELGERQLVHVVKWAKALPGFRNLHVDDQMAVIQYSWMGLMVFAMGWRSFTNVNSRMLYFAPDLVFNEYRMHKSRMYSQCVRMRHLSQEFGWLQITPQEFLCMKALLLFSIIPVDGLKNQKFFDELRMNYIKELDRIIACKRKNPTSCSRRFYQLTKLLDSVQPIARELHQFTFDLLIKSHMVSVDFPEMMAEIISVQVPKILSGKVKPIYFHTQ

[5] = target: T4, Peroxisome proliferator-activated receptor delta (Homo sapiens) (UniProt Q03181); test: Antagonist activity at PPARdelta expressed in african green monkey CV1 cells co-expressing MH100 by luciferase reporter gene assay; format: functional, cell-based; settings: CV-1
T4 sequence (whole entry): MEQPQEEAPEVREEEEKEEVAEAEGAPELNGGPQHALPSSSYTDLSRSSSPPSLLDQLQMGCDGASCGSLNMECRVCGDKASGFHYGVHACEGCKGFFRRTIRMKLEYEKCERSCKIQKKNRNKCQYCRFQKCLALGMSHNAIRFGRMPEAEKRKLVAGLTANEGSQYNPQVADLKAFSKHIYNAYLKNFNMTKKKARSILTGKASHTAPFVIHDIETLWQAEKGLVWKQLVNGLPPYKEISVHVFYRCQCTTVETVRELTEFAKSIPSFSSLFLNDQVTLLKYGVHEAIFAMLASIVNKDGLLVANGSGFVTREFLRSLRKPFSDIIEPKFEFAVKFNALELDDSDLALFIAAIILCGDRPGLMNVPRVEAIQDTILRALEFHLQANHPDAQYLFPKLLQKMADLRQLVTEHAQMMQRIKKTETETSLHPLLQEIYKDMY

Estrogen receptor = Estrogen receptor (Homo sapiens, UniProt P03372); test: Antagonist activity at gal-ERalpha expressed in african green monkey CV1 cells co-expressing MH100 by luciferase reporter gene assay; format: functional, cell-based, CV-1
Progesterone receptor = Progesterone receptor (Homo sapiens, UniProt P06401); test: Antagonist activity at gal-PR expressed in african green monkey CV1 cells co-expressing MH100 by luciferase reporter gene assay; format: functional, cell-based, CV-1
[6] = Cmax in CD rat at 3 mg/kg, iv; format: ADME, organism-based; design: dose 3 mg/kg, route intravenous; settings: in vivo

Chain of Progesterone receptor (P06401 whole entry): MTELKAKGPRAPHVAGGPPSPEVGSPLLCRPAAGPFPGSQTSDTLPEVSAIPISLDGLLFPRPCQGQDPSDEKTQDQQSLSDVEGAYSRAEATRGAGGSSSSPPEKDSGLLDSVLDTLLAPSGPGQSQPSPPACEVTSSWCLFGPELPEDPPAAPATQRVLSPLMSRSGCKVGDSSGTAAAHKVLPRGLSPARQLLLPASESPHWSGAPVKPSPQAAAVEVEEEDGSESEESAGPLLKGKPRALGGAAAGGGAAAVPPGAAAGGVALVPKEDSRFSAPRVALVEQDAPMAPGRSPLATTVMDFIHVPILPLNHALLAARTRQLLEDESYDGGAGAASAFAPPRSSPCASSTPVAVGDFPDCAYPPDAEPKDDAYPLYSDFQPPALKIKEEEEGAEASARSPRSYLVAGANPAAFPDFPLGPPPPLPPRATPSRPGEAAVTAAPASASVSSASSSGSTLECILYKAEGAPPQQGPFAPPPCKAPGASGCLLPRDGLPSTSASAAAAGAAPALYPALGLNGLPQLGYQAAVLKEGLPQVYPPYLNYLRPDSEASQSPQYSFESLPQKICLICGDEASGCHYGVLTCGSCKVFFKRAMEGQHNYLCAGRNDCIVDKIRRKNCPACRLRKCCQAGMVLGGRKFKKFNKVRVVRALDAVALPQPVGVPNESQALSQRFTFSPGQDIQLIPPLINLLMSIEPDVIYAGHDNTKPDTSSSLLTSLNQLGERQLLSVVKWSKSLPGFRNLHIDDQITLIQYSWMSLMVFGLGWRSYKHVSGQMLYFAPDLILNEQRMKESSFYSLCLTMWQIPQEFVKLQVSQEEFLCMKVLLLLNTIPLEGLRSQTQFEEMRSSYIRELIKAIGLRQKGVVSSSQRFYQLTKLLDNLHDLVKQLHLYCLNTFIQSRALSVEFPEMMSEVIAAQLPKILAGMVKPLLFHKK
Chain of Estrogen receptor (P03372 whole entry): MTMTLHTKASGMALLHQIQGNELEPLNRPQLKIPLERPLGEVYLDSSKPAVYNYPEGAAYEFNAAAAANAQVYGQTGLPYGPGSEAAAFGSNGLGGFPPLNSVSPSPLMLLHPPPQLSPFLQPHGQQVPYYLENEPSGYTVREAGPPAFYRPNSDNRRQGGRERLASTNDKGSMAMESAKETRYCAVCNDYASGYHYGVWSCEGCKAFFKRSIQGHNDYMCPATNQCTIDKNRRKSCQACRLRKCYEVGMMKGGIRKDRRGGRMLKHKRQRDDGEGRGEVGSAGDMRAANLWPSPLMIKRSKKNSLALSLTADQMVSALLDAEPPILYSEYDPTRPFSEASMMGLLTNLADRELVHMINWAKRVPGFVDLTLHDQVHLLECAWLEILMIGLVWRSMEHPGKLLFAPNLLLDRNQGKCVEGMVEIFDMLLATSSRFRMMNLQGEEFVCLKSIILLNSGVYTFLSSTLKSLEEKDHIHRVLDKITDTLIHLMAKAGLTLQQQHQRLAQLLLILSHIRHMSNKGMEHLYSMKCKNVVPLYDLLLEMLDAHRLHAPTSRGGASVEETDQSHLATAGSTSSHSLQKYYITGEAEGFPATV
Chain of Nuclear receptor subfamily 1 group I member 2 (O75469 whole entry): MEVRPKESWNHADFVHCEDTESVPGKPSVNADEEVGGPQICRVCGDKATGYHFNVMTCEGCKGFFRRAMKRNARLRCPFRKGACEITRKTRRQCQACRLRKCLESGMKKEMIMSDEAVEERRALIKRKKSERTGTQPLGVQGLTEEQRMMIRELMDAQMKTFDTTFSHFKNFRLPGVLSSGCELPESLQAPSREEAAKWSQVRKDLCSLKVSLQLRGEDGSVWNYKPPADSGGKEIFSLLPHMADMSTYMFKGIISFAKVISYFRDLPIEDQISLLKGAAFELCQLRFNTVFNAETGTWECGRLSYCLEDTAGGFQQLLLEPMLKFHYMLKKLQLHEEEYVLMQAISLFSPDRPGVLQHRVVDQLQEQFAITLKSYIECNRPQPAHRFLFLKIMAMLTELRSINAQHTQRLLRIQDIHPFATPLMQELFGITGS

Activity [1]: inactive | Activity [2]: Not Active | Activity [3]: inactive | Activity [4]: inactive | Activity [5]: inactive | IC50 (Estrogen receptor): 10 µM | IC50 (Progesterone receptor): 10 µM | Cmax [6]: 30.5 µM
SMILES: CC(C)OC(=O)C1=CN(C(=O)c2ccc(F)c(F)c2)CC(C)(C)c2c1[nH]c1ccccc21 [TUROFEXORATE ISOPROPYL]
